# From PMC3985417 (Journal of Medicinal Chemistry, 2014)
# Assay: in vitro
# Conditions: human, HEK293 cell homogenate
structure (smiles),measurement,value
CN(C)CCCN1c2ccccc2CCc2ccccc21 [Imipramine],fraction unbound at 4 h,0.59 ± 0.013
